Laboratory results taken from patent US10196363B2, “Dihydropyrimidin-2-one compounds and medical use thereof” (JAPAN TOBACCO INC., priority 2014, dated 2019).
Read-outs that look alike come from different tables or passages of the source.

Assays:
human RORγ = biological target: T1, human RORγ (Homo sapiens, UniProt P51449); test: In vitro assay of inhibitory effect against RORγ transcriptional activity (GAL4-hRORγ LBD luciferase reporter gene assay in CHO cells); assay type: cell-based; details: for hRORγ luciferase activity, %-of-control: vehicle-control 0.2% DMSO alone = 100%
T1 construct: human RORγ, from Ser253 to Lys518; expressed in transfected cells; host or cells: CHO cells (Chinese hamster ovary), transient co-transfection with pG5-Luc
T1 sequence (P51449 253-518): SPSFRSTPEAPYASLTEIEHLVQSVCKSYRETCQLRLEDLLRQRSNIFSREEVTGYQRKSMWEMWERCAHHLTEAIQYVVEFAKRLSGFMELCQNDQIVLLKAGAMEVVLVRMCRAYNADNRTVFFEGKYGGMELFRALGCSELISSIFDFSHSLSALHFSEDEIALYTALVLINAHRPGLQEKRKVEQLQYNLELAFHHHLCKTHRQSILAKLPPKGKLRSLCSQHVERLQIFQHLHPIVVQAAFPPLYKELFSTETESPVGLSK
Summary of the method: (§1)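 Luciferase output, normalised to 0.2% DMSO vehicle (100%), served as the measure of RORγ transcriptional activity. The reporter was driven by GAL4-fused ligand-binding domains of human (residues 253–518) or mouse (251–516) RORγ in transiently transfected CHO cells. Cells received eight-point compound dilutions for 2 days, EC50 values were fitted, and cytotoxic points were dropped.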

mouse RORγ = biological target: T2, mouse RORγ (Mus musculus, UniProt P51450); test: In vitro assay of inhibitory effect against RORγ transcriptional activity (GAL4-mRORγ LBD luciferase reporter gene assay in CHO cells); assay type: cell-based; details: for mRORγ luciferase activity, %-of-control: vehicle-control 0.2% DMSO alone = 100%
T2 construct: mouse RORγ, from Ile251 to Lys516; expressed in transfected cells; host or cells: CHO cells (Chinese hamster ovary), transient co-transfection with pG5-Luc
T2 sequence (P51450 251-516): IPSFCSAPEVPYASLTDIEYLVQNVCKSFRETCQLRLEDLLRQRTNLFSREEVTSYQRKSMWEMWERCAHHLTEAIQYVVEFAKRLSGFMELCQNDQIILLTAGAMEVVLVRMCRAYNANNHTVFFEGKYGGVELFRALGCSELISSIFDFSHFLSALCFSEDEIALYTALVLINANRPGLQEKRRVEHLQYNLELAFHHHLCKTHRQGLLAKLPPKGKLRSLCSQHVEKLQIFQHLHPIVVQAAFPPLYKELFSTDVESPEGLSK
Summary of the method: as §1

[1] = GAL4-hRORγ LBD luciferase reporter, CHO cells, read-out: LUC EC50 hRORγ
[2] = GAL4-mRORγ LBD luciferase reporter, CHO cells, read-out: LUC EC50 mRORγ
[3] = GAL4-hRORγ LBD / pG5-Luc in CHO cells, 2 days incubation
[4] = GAL4-mRORγ LBD / pG5-Luc in CHO cells, 2 days incubation
[5] = value in parentheses beside the > EC50 bound
[6] = value in parentheses beside the EC50 bound

SMILES	EC50 (human RORγ; [1]) [nM]	EC50 (mouse RORγ; [2]) [nM]	EC50 (human RORγ; [3]) [nM]	EC50 (mouse RORγ; [4]) [nM]	other results
CCOC(=O)C1CNCC1N1C=C(C(C)C)[C@](C)(c2ccc(CCC(C)(C)C)c(Cl)c2)NC1=O (single isomer, unassigned) [Example 245]	261	301			
COCCC1=CN(C23CCC(C(=O)O)(C2)C3)C(=O)N[C@@]1(C)c1ccc(CCC(C)(C)C)c(C(F)(F)F)c1 [Example 324]	47	36			
CC(C)C1=CN(C2CCCC2C(=O)O)C(=O)N[C@@]1(C)c1ccc(CCC(C)(C)C)c(Cl)c1 (single isomer, unassigned) [Example 242]	78	58			
CC(C)C1=CN(CCC(=O)O)C(=O)N[C@@]1(C)c1ccc(CCCC(F)(F)F)c(Cl)c1 [Example 129]			47	< 32	
CC(C)C1=CN(CCC(C)C(=O)O)C(=O)NC1(C)c1ccc(CCC(C)(C)C)c(Cl)c1 (single isomer, unassigned) [Example 24]			2940	2930	
CC(C)C1=CN(CCC(=O)O)C(=O)N[C@@]1(C)c1ccc(CC(O)C(C)(C)C)c(Cl)c1 (single isomer, unassigned) [Example 311]	86	94			
CC(C)(C)CCc1ccc([C@]2(C)NC(=O)N(CCC(=O)O)C=C2C2CC(F)(F)C2)cc1Cl [Example 319]	13	14			
CO[C@H]1C[C@H](N2C=C(C(C)(C)CCC(=O)O)[C@](C)(c3ccc(CCC(C)(C)C)c(Cl)c3)NC2=O)C1 [Example 197]	13	23			
CC(C)C1=CN(CCC(=O)O)C(=O)N[C@@]1(C)c1ccc(C2=CCCC2)c(Cl)c1 [Example 149]			1010	245	
COCCC1=CN(C23CCC(C(=O)O)(C2)C3)C(=O)N[C@@]1(C)c1ccc([C@H]2C[C@@H](C(C)(C)C)C2)c(Cl)c1 (single isomer, unassigned) [Example 344]	13	12			
CC(C)C1=CN([C@H]2C[C@H](C(=O)O)C2)C(=O)N[C@]1(C)c1cc(Cl)c(CCC(C)(C)C)cc1F [Example 103]			> 3200	> 3200	hRORγ luciferase activity, %-of-control (human RORγ; [5]): (65%); mRORγ luciferase activity, %-of-control (mouse RORγ; [5]): (50%)
COCC1(N2C=C([C@H]3C[C@@H](C(=O)O)C3)[C@](C)(c3ccc(CCC(C)(C)C)c(Cl)c3)NC2=O)CC1 [Example 250]	42	114			
CC(C)(C)CCc1ccc([C@]2(C)NC(=O)N(CCCC(=O)O)C=C2C2CCC2)cc1Cl [Example 59]			12	20	
CC(C)C1=CN(C23C4C5C2C2C3C4C52C(=O)O)C(=O)N[C@@]1(C)c1ccc(CCC(C)(C)C)c(Cl)c1 (single isomer, unassigned) [Example 222]	20	40			
CC(C)C1=CN(CCC(=O)O)C(=O)N[C@@]1(C)c1ccc(C=C2CCCCC2)c(Cl)c1 [Example 267]	30	33			
CC(C)C1=CN(C2CCC(C(=O)O)C2)C(=O)N[C@@]1(C)c1ccc(CCC(C)(C)C)c(Cl)c1 (single isomer, unassigned) [Example 64]			19	16	
CC(C)C1=CN(CCC(=O)O)C(=O)N[C@]1(C)c1ccc(CCC2CCC2)c(Cl)c1 [Example 121]			> 8000	> 8000	hRORγ luciferase activity, %-of-control (human RORγ; [5]): (62%); mRORγ luciferase activity, %-of-control (mouse RORγ; [5]): (85%)
CC(C)(C)CCc1ccc(C2NC(=O)N(CCCC(=O)O)C=C2C(C)(C)C)cc1Cl (single isomer, unassigned) [Example 11]			> 8000	> 8000	hRORγ luciferase activity, %-of-control (human RORγ; [5]): (87%); mRORγ luciferase activity, %-of-control (mouse RORγ; [5]): (79%)
CC(C)C1=CN(C[C@H]2C[C@H](C(=O)O)C2)C(=O)N[C@@]1(C)c1ccc(CCC(C)(C)C)c(Cl)c1 [Example 154, 3-{(S)-4-[3-chloro-4-(3,3-dimethyl-butyl)-phenyl]-5-isopropyl-4-methyl-2-oxo-3,4-dihydro-2H-pyrimidin-1-ylmethyl}-cyclobutanecarboxylic acid]			10	14	
CC(C)C1=CN(CCC(=O)O)C(=O)N[C@]1(C)c1ccc(CCC2CCCC2)c(Cl)c1 [Example 119]			> 8000	> 8000	hRORγ luciferase activity, %-of-control (human RORγ; [5]): (74%); mRORγ luciferase activity, %-of-control (mouse RORγ; [5]): (76%)
CC(C)(C)CCc1ccc([C@]2(C)NC(=O)N(CCCC(=O)O)C=C2C2CC2)cc1Cl [Example 57]			31	22	
CC(C)C1=CN(CC[C@@H](O)C(=O)O)C(=O)N[C@@]1(C)c1ccc(CCC(C)(C)C)c(Cl)c1 [Example 89]			16	16	

SMILES	EC50 (human RORγ; [1]) [nM]	EC50 (mouse RORγ; [2]) [nM]	EC50 (human RORγ; [3]) [nM]	EC50 (mouse RORγ; [4]) [nM]	other results
CC(C)CCC1=CN(CCCC(=O)O)C(=O)N[C@]1(C)c1ccc(CCC(C)(C)C)c(Cl)c1 [Example 43]			564	835	
CC(C)C1=CN(CCC(=O)O)C(=O)N[C@@]1(C)c1cc(F)c(CCC(C)(C)C)c(Cl)c1 [Example 175]			9	12	
CC(C)C1=CN(c2ccc(C(=O)O)c(C(F)(F)F)c2)C(=O)N[C@@]1(C)c1ccc(CCC(C)(C)C)c(Cl)c1 [Example 283]	18	28			
CC(C)C1=CN(CCC(=O)O)C(=O)N[C@@]1(C)c1ccc(CCC2(C)CC2)c(Cl)c1 [Example 132]			18	14	
CC(C)C1=CN(CC[C@@H](O)C(=O)O)C(=O)N[C@]1(C)c1ccc(CCC(C)(C)C)c(Cl)c1 [Example 88]			443	422	
CC(C)C1=CN(CCCC(C)(C)C(=O)O)C(=O)N[C@]1(C)c1ccc(CCC(C)(C)C)c(Cl)c1 [Example 74]			986	1100	
CC(C)C1=CN(CCC(=O)O)C(=O)N[C@@]1(C)c1ccc(CC2CCCC2)c(Cl)c1 [Example 263]	26	18			
CC(C)(C)CCc1ccc([C@]2(C)NC(=O)N(C3CCOCC3)C=C2[C@H]2C[C@@H](C(=O)O)C2)cc1Cl [Example 199]	70	136			
CC(C)CCOc1ccc([C@]2(C)NC(=O)N(CCC(=O)O)C=C2C(C)C)cc1Cl [Example 150]			21	12	
CC(C)C1=CN(CCC(=O)O)C(=O)N[C@@]1(C)c1ccc(CCC(C)(C)C)c(F)c1 [Example 176]			22	13	
CC(C)(C)CCc1ccc([C@]2(C)NC(=O)N(CC3CC(F)(F)C3)C=C2[C@H]2C[C@@H](C(=O)O)C2)cc1Cl [Example 248]	10	21			
CC(C)C1=CN(CCC(=O)O)C(=O)N[C@@]1(C)c1ccc(CCC(C)(C)C(=O)O)c(Cl)c1 [Example 261]	> 20000	> 20000			hRORγ luciferase activity, %-of-control (human RORγ; [6]): (90%); mRORγ luciferase activity, %-of-control (mouse RORγ; [6]): (100%)
CC(C)(C)CCc1ccc([C@]2(C)NC(=O)N(c3ccncc3)C=C2CCC(=O)O)cc1Cl [Example 231]	692	458			
CC(C)C1=CN(CCC(=O)O)C(=O)N[C@@]1(C)c1ccc(CCC(C)(C)O)c(Cl)c1 [Example 293]	1100	1020			
CC(C)CC1=CN(CCCC(=O)O)C(=O)N[C@]1(C)c1ccc(CCC(C)(C)C)c(Cl)c1 [Example 37]			154	282	
CC(C)C1=CN(CCC(=O)O)C(=O)NC1(C)c1ccc(C2CCCC(C)(C)C2)c(Cl)c1 (single isomer, unassigned) [Example 166]			14	29	
CC(C)C1=CN([C@H]2CC[C@@H](C(=O)O)CC2)C(=O)N[C@@]1(C)c1ccc(CCC(C)(C)C)c(Cl)c1 [Example 67]			23	17	
CC(C)C1=CN(CCC(=O)O)C(=O)N[C@@]1(C)c1ccc(C2CCC2)c(Cl)c1 [Example 153]			327	116	
COCCC1=CN(C23CC(C(=O)O)(C2)C3)C(=O)N[C@@]1(C)c1ccc(CCC(C)(C)C)c(C(F)(F)F)c1 [Example 340]	123	43			
CC(C)(C)CCc1ccc([C@]2(C)NC(=O)N(CCC(N)=O)C=C2[C@H]2C[C@@H](C(=O)O)C2)cc1Cl [Example 249]	412	779			
CC(C)C1=CN(CCC(=O)O)C(=O)N[C@]1(C)c1ccc(CCCC(C)(C)C)c(Cl)c1 [Example 123]			> 3200	> 3200	hRORγ luciferase activity, %-of-control (human RORγ; [5]): (109%); mRORγ luciferase activity, %-of-control (mouse RORγ; [5]): (100%)
CC(C)(C)CCc1ccc([C@]2(C)NC(=O)N(c3ccc(C(=O)O)cc3)C=C2CCCOC(C)(C)C)cc1Cl [Example 313]	260	366			
